US20230295096A1, “PYRAZOLE CARBOXAMIDE COMPOUNDS FOR TREATMENT OF HBV” (ASSEMBLY BIOSCIENCES, INC., priority 2020, published 2023)

tested on: HBV; assay: Viral load production from HepAD38 cells, qPCR of the HBV core sequence in supernatant; type: cell-based; conditions: Hepatitis B virus, HePAD38, 120 h, HepAD38 cells, 5 days, HBV DNA in supernatant by qPCR; Table 1 ranges; read-out: Activity (viral load lowering EC50)
In short: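 EC50 and CC50 come from four-parameter logistic fits of supernatant HBV core DNA (TaqMan qPCR, DNA standards, compared with DMSO wells) and of CellTiter-Glo luminescence.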

SMILES	EC50 [µM]
Cn1nc(C2CC3CC(O)(c4cc([N+](=O)[O-])nn4C4CC4)CC3C2)c(C(=O)Nc2ccc(F)c(Cl)c2)c1N (stereo not shown) [Example 218]	< 0.01
Cn1cc(C(F)(F)F)c(C2(O)CC3CC(c4nn(C)c(N)c4C(=O)Nc4ccc(F)c(Cl)c4)CC3C2)n1 (stereo not shown) [Example 219]	< 0.01
Cn1cc(C2(O)CC3CC(c4nn(C)c(N)c4C(=O)Nc4ccc(F)c(Cl)c4)CC3C2)c(C(F)(F)F)n1 (stereo not shown) [Example 220]	< 0.01
Cn1nc(C2CC3CC(O)(c4c(Cl)c(N)nn4C)CC3C2)c(C(=O)Nc2ccc(F)c(Cl)c2)c1N (stereo not shown) [Example 221]	< 0.01
Cn1nc(C2CC3CC(O)(c4c[nH]nc4C(F)(F)F)CC3C2)c(C(=O)Nc2ccc(F)c(C#N)c2)c1N (stereo not shown) [Example 222]	< 0.01
Cn1nc(C2CC3CC(O)(c4cc(C(F)(F)F)n[nH]4)CC3C2)c(C(=O)Nc2ccc(F)c(Cl)c2)c1N (stereo not shown) [Example 223]	< 0.01
Cn1nc(C2CC3CC(O)(c4[nH]nc(C(F)(F)F)c4Br)CC3C2)c(C(=O)Nc2ccc(F)c(Cl)c2)c1N (stereo not shown) [Example 224]	0.01 to 0.05
COC(=O)CCC(=O)OCn1cc(C2(O)CC3CC(c4nn(C)c(N)c4C(=O)Nc4ccc(F)c(Cl)c4)CC3C2)c(C(F)(F)F)n1 (stereo not shown) [Example 226]	< 0.01
COCCOCCOCCOCCOCCOCCOC(=O)OCn1cc(C2(O)CC3CC(c4nn(C)c(N)c4C(=O)Nc4ccc(F)c(Cl)c4)CC3C2)c(C(F)(F)F)n1 (stereo not shown) [Example 228]	< 0.01
COCCOCCOCCOCCOCCOCCOCCOC(=O)OCn1cc(C2(O)CC3CC(c4nn(C)c(N)c4C(=O)Nc4ccc(F)c(Cl)c4)CC3C2)c(C(F)(F)F)n1 (stereo not shown) [Example 229]	< 0.01
Cn1nc(C2CC3CC(O)(c4cn(COC(=O)CCC(=O)OCc5ccccc5)nc4C(F)(F)F)CC3C2)c(C(=O)Nc2ccc(F)c(Cl)c2)c1N (stereo not shown) [Example 230]	< 0.01
Cn1nc(C2CC3CC(Oc4ncccn4)CC3C2)c(C(=O)Nc2ccc(F)c(Cl)c2)c1N (stereo not shown) [Example 231]	0.01 to 0.05

same assay, conditions: Hepatitis B virus, HePAD38, 120 h, read-out: Activity (viral load lowering EC50), HepAD38 cells, 5 days, HBV DNA in supernatant by qPCR; Table 1 ranges

SMILES	EC50 [µM]
Cn1nc(C2CC3CC(O)(Cc4ccc(S(C)(=O)=O)cn4)CC3C2)c(C(=O)Nc2ccc(F)c(Cl)c2)c1N (stereo not shown) [Exmaple 165]	< 0.01
